According to patent publication US20020192274A1, “pH sensitive liposomal drug delivery” (priority 2001, published 2002):

Columns and labels:
TNF-α [1] = assay: Plasma TNF-α after LPS challenge following in vivo ASO administration (ELISA); parameters: species or system rat
Protocol: FIG. 6. […] Rats are injected with either one (n=3), two (n=8) or three (n=1) daily doses of TJU-2755 (SEQ. ID. NO: 1) and administered LPS (50 μg/Kg body wt.) at 48 h after the last injection of the antisense formulation as described in legend to FIG. 5. […] Plasma TNF-α is determined by ELISA. Bars indicate values from ASO-treated animals expressed as percent of corresponding controls (animals dosed with “empty liposomes”) and are the means ±S.E of (n) determinations. ***p<0.001 between rats injected two daily doses of ASO and controls. The absolute (Mean) values of TNF-α for control and TJU-2755 (SEQ. ID. NO: 1)-treated plasma samples (for two daily doses) were 34,375 and 9,731 (pg/ml plasma) respectively.
(§1) ELISA is conducted by using Cytoscreen KRC3012 kits (Biosource, Camarillo, Calif.) according to the manufacturer's specifications. Supernatants containing high TNF-α levels are diluted prior to the assay to assure assay results within the standard curve.
(§2) Rats are injected intravenously with two daily doses (1.5 mg/Kg body wt.) of ASO TJU-2755 (SEQ. ID. NO: 1) encapsulated in pH-stable liposomes and challenged with LPS (50 μg/Kg body wt.) at 48 h post injection. Animals are sacrificed 90 minutes post-LPS. The amount of TNF-α in plasma, as well as that secreted by liver slices, is determined exactly as described for pH-sensitive liposomes (supra) and legends to FIG. 4 and FIG. 5. Body-weight matched rats injected with two doses of “empty” liposomes and challenged similarly with LPS constituted the control group. All TNF-α values are normalized to the corresponding control groups (=100). Values are expressed as mean ±S.E of (n) determinations.

TNF-α mRNA = assay: Tissue levels of TNF-α mRNA by Northern hybridization; assay type: in vivo, rat; details: pH-sensitive liposomes, two daily doses 1.5 mg/Kg, LPS 48 h post ASO, normalized to GAPDH, vs empty liposomes
Protocol: FIG. 8. Effect of ASO TJU-2755 (SEQ. ID. NO: 1) in vivo on TNF-α mRNA. Rats are injected with two daily doses (1.5 mg/Kg body wt.) of ASO and injected with LPS (50 μg/Kg body wt.) 48 h post ASO administration as described in legend to FIG. 5. Liver (n=5) and spleen (n=4) are processed for the extraction of mRNA fractions. Steady-state levels of TNF-α mRNA are determined by Northern hybridization and normalized to the levels of GAPDH mRNA. Bars indicate mRNA (Means ±S.E) of (n) values from ASO-treated samples, expressed as percent of control values derived from rats treated with “empty” liposomes. *p<0.05, **p<0.01 (Vs control).
Liver and spleen samples (≈100 mg) are homogenized in 3 volumes of cold TRI Reagent (Molecular Research Center, Inc.). […] The intactness of total RNA is measured by agarose (1%) gel electrophoresis by visualizing the intactness of ribosomal RNA (28S, 18S). […] The purity of the isolated mRNA is monitored by analyzing the absorption ratios of 260 to 280 (nm), which always ranged from 1.8-2.0.
Samples of mRNA are run on 1% agarose gel electrophoresis, vacuum transferred (BIORAD Model 785 Vacuum Blotter) onto a nitrocellulose membrane (Amersham), and crosslinked (Statagene UV Stratalinker 2400). […] The autoradiograms are quantitated using an ultrascan laser densitometer. […]

TNF-α [2] = details: primary Kupffer cells ex vivo; cited from earlier work
TNF-α [3] = assay: LPS-induced TNF-α secretion by liver slices after in vivo ASO administration (ELISA); parameters: species or system rat; details: for inhibition of LPS-induced TNF-α production in liver slices: vs empty liposomes
Protocol: FIG. 4. In vivo efficacy of ASO TJU-2755 (SEQ. ID. NO: 1) against TNF-α in the liver: Effect of duration post-injection. Rats are intravenously injected with pH-sensitive liposomes encapsulated with TJU-2755 (1.5-1.75 mg/Kg body wt). At different times (24, 48 and 72 h) after ASO administration, LPS (50 μg/Kg body weight for 90 minutes) is administered intravenously (i.v.) and the animals are sacrificed 90 min after this challenge. Liver is excised, slices prepared and incubated for 2 h (infra). The amount of TNF-α released into the medium is measured by ELISA. The TNF-α values (bars) from the ASO-treated animals are normalized to control values (control=100) obtained from body weight-matched rats treated similarly except that they are injected with “empty” liposomes. Values indicated are means ±S.E. of (n) determinations. Number of animals, 24 h, n=3; 48 h, n=4, 72 h, n=3. * p<0.05 (vs Control).
FIG. 5. In vivo efficacy of ASO TJU-2755 (SEQ. ID. NO: 1) against TNF-α in the liver: Effect of multiple injections. Rats are injected with either one or two daily doses of ASO (1.5-1.75 mg/Kg body wt) encapsulated liposomes. […] The amount of TNF-α produced by liver slices is determined as described in legend to FIG. 4 (supra). Bars indicate the amount of TNF-α produced by ASO-treated animals, expressed as percent of controls injected with “empty” liposomes and are the means ±S.E. of n=4 for single dose and n=7 for two doses. *p<0.05, **p<0.01 vs control). The absolute values (Mean) of TNF-α for control and TNF-2755-treated livers (for two daily doses) were 17,748 and 7,500 pg/g liver, respectively.
Following the in vivo administration of LPS, the production of TNF-α in the liver is assessed by measuring the amount of TNF-α secreted by liver slices. Liver slices are prepared and incubated in culture medium according to the procedure described by Videla and Israel (Videla, L., Israel, Y., Biochem J. 118: 275-281, 1970) with modifications, which include the addition of insulin and fetal calf serum to the culture medium. Briefly, liver slices of uniform thickness (10×4×0.4 mm) are prepared from the mid lobe and initially rinsed in ice-cold William's E medium. The slices (2 slices per dish) are transferred to culture dishes (35 mm) containing 2 ml of fresh medium (90% William's E, 10% fetal calf serum and 2 units of insulin/100 ml) and incubated at 37° C. for 2 h. The amount of TNF-α released into the medium is measured (infra).
as §1, §2

[4] = pH-stable liposomes, two daily doses 1.5 mg/Kg i.v., LPS at 48 h, mean ± S.E

## TJU-2755: phosphorothioate 21-mer antisense oligonucleotide 5′-TGATCCACTCCCCCCTCCACT-3′, complementary to the 3′-untranslated region of rat TNF-α mRNA (all phosphorothioate, sugars by position and methylation of C not given here)
TNF-α [1]; pH-sensitive liposomes, 2 doses, LPS 48 h after last injection, vs empty liposomes
  reduction in plasma TNF-α levels: 68%
TNF-α [1]; pH-sensitive liposomes, two daily doses, control 34,375
  plasma TNF-α, absolute mean: 9,731 pg/ml plasma
TNF-α [1]; [4]
  TNF-α (%) plasma, normalized to control (=100): 93 ± 28%
TNF-α mRNA
  reduction in TNF-α mRNA levels, spleen: 36.5%
  reduction in steady-state levels of TNF-α mRNA, liver: 35%
TNF-α [2]
  inhibition of LPS-stimulated TNF-α production: > 90%
TNF-α [3]; ASO delivered with pH-stable liposomes (liver and plasma, Table 1)
  inhibitory effect on LPS-induced TNF-α production: no inhibitory effect
TNF-α [3]; pH-sensitive liposomes, single i.v. dose, LPS 48 h post injection
  inhibition of LPS-induced TNF-α production in liver slices: ~30%
TNF-α [3]; pH-sensitive liposomes, two daily doses, LPS 48 h after last injection
  inhibition of LPS-induced TNF-α production in liver slices: 50%
TNF-α [3]; pH-sensitive liposomes, two daily doses, control 17,748
  TNF-α produced by liver slices, absolute mean: 7,500 pg/g liver
TNF-α [3]; [4]
  TNF-α (%) liver, normalized to control (=100): 103 ± 23%
